# BindingDB's records for PubMed 7815359 (University of Pennsylvania, 1995)
# Target: Mu-type opioid receptor (Rattus norvegicus, UniProt P33535)
# Sequence (P33535 whole entry): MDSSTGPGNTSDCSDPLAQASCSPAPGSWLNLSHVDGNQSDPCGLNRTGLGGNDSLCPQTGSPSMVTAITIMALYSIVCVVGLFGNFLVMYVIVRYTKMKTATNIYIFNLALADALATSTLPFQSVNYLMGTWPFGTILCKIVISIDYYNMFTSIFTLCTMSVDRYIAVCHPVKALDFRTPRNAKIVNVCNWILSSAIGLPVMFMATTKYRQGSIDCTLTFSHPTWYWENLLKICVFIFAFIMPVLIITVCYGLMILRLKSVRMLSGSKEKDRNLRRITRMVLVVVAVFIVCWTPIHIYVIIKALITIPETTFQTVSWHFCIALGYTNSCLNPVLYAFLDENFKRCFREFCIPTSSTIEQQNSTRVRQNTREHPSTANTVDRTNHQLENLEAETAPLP
substance,measurement,value
H-YGGFMTSEKSQTPLVTLFKNAIVKNAHKKGQ-OH [Beta-Endorphin],Ki,1.7 nM
